Test results from patent publication US8093240B2, “Triazole derivatives” (Merck Patent GmbH, priority 2005, dated 2012).

Each compound was assayed on TGF-beta (assay: Elimination of TGF-beta-mediated growth inhibition in Mv1Lu cells (Crystal Violet staining)). Conditions: 48 h; lung epithelial cell line Mv1Lu, 1 ng/ml TGF-beta, 0.5% FCS, two days.
Format: cell-based
Procedure: In-Vitro (Enzyme) Assay for Determination of the Efficacy of Inhibitors of the Inhibition of TGF-Beta-Mediated Effects
As an example, the ability of the inhibitors to eliminate TGF-beta-mediated growth inhibition is tested.
Cells of the lung epithelial cell line Mv1Lu are sown in a defined cell density in a 96-well microtitre plate and cultivated overnight under standard conditions. Next day, the medium is replaced by medium which comprises 0.5% of FCS and 1 ng/ml of TGF-beta, and the test sub-stances are added in defined concentrations, generally in the form of dilution series with 5-fold steps. The concentration of the solvent DMSO is constant at 0.5%. After a further two days, Crystal Violet staining of the cells is carried out. After extraction of the Crystal Violet from the fixed cells, the absorption is measured spectrophotometrically at 550 nm. It can be used as a quantitative measure of the adherent cells present and thus of the cell proliferation during the culture.

Q: `Cc1cccc(-c2nnc3n2-c2cc(NC(=O)C(C)(C)C)ccc2NCC3C)n1` (stereo not shown) [Compound A80, 2,2-Dimethyl-N-[4-methyl-1-(6-methylpyridin-2-yl)-5,6-dihydro-4H-2,3,6,10b-tetraazabenzo[e]azulen-9-yl]propionamide] was tested. Which IC50 did it give?
A: Its IC50 is 3.3 µM.

Q: With `Cc1cccc(-c2nnc3n2-c2ccc(Cl)cc2NC[C@@H]3C)n1` [Compound A4, (+)-(S)-8-Chloro-4-methyl-1-(6-methylpyridin-2-yl)-5,6-dihydro-4H-2,3,6,10b-tetraazabenzo[e]azulene] as the compound, how does the IC50 read?
A: Its IC50 is 3.8 µM.

Q: How did the IC50 turn out when `COc1cccc(-c2nnc3n2-c2ccc(OC)cc2NCC3C)c1` (racemic) [Compound A6, (R,S)-8-Methoxy-1-(3-methoxyphenyl)-4-methyl-5,6-dihydro-4H-2,3,6,10b-tetraazabenzo[e]azulene] was run?
A: Its IC50 is 3.9 µM.

Q: Which IC50 does the source give for `COc1cccc(-c2nnc3n2-c2ccc(Cl)cc2NCC3C)c1` (racemic) [Compound B1, (R,S)-8-Chloro-1-(3-methoxyphenyl)-4-methyl-5,6-dihydro-4H-2,3,6,10b-tetraazabenzo[e]azulene] here?
A: Its IC50 is 7 µM.

Q: For `CC1CNc2cc(O)ccc2-n2c(-c3cc(Cl)ccc3F)nnc21` (racemic) [Compound A9, (R,S)-1-(5-Chloro-2-fluorophenyl)-4-methyl-5,6-dihydro-4H-2,3,6,10b-tetraazabenzo[e]azulene-8-ol], which IC50 is on record?
A: Its IC50 is 0.91 µM.

Q: `Cc1cccc(-c2nnc3n2-c2ccc(O)cc2NCC3C)n1` (racemic) [Compound A1, (R,S)-8-hydroxy-4-methyl-1-(6-methylpyridin-2-yl)-5,6-dihydro-4H-2,3,6,10btetraazabenzo[e]azulene] was tested. Which IC50 did it give?
A: Its IC50 is 0.18 µM.

Q: With `Cc1cccc(-c2nnc3n2-c2ccc(O)cc2NCC3)n1` [Compound A7, 1-(6-Methylpyridin-2-yl)-5,6-dihydro-4H-2,3,6,10b-tetraazabenzo[e]azulen-8-ol] as the compound, how does the IC50 read?
A: The IC50 was 2.2 µM.

Q: With `CCOc1cccc(-c2nnc3n2-c2ccc(Cl)cc2NCC3C)c1` (racemic) [Compound A10, (R,S)-8-Chloro-1-(3-ethoxyphenyl)-4-methyl-5,6-dihydro-4H-2,3,6,10b-tetraazabenzo[e]azulene] as the compound, how does the IC50 read?
A: The IC50 was 5.7 µM.

Q: With `Cc1cccc(-c2nnc3n2-c2ccc(Cl)cc2NCC3C)n1` (racemic) [Compound A3, (R,S)-8-Chloro-4-methyl-1-(6-methylpyridin-2-yl)-5,6-dihydro-4H-2,3,6,10b-tetraazabenzo[e]azulene] as the compound, how does the IC50 read?
A: The IC50 was 3.5 µM.

Q: With `COc1ccc2c(c1)NCC(C)c1nnc(-c3cccc(C)n3)n1-2` (racemic) [Compound A5, (R,S)-8-Methoxy-4-methyl-1-(6-methylpyridin-2-yl)-5,6-dihydro-4H-2,3,6,10b-tetraazabenzo[e]azulene] as the compound, how does the IC50 read?
A: The IC50 was 2.4 µM.

Q: How did the IC50 turn out when `CC1CNc2cc(O)ccc2-n2c(-c3cccc(Cl)c3)nnc21` (racemic) [Compound A2, (R,S)-1-(3-Chlorophenyl)-4-methyl-5,6-dihydro-4H-2,3,6,10b-tetraazabenzo[e]azulen-8-ol] was run?
A: Its IC50 is 0.97 µM.

Q: Which IC50 does the source give for `Cc1cccc(-c2nnc3n2-c2ccc(O)cc2NC(C)C3)n1` (stereo not shown) [Compound A78, 5-Methyl-1-(6-methylpyridin-2-yl)-5,6-dihydro-4H-2,3,6,10b-tetraazabenzo[e]azulen-8-ol] here?
A: The IC50 was 0.15 µM.

Q: For `COc1ccc2c(c1)NCC(C)c1nnc(-c3cc(Cl)ccc3F)n1-2` (racemic) [Compound A8, (R,S)-1-(5-Chloro-2-fluorophenyl)-8-methoxy-4-methyl-5,6-dihydro-4H-2,3,6,10b-tetraazabenzo[e]azulene], which IC50 is on record?
A: The IC50 was 6.6 µM.
